Source: US12077503B2, “Substituted cyclic amides and their use as herbicides” (FMC CORPORATION, priority 2015, dated 2024)

Key:
Assay type in all cases: in vivo
[1] = tested on: Kochia (Kochia scoparia); experiment: Test A preemergence; details: Bassia scoparia, pre-emergence, 240 h, 0 to 100 scale where 0 is no effect and 100 is complete control, read-out: Kochia plant response rating
Method in brief: (§1)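 Greenhouse, ~10 d after spray; visual injury vs untreated controls, 0 = no effect, 100 = complete control. Preemergence: directed soil spray over planted seeds. Postemergence: plants 2–10 cm, 1–2 leaf stage. Loam/sand blend. Compound in non-phytotoxic solvent with surfactant.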

[2] = tested on: barnyardgrass (Echinochloa crus-galli); experiment: Test A preemergence; details: Echinochloa crus-galli, pre-emergence, 240 h, 0 to 100 scale where 0 is no effect and 100 is complete control, read-out: Barnyardgrass plant response rating
Method in brief: as §1

[3] = tested on: giant foxtail (Setaria faberii); experiment: Test A preemergence; details: Setaria faberi, pre-emergence, 240 h, 0 to 100 scale where 0 is no effect and 100 is complete control, read-out: Foxtail, Giant plant response rating
Method in brief: as §1

[4] = tested on: pigweed (Amaranthus retroflexus); experiment: Test A preemergence; details: Amaranthus retroflexus, pre-emergence, 240 h, 0 to 100 scale where 0 is no effect and 100 is complete control, read-out: Pigweed plant response rating
[5] = tested on: ragweed (common ragweed, Ambrosia elatior); experiment: Test A preemergence; details: Ambrosia artemisiifolia, pre-emergence, 240 h, 0 to 100 scale where 0 is no effect and 100 is complete control, read-out: Ragweed plant response rating
Method in brief: as §1

[6] = tested on: ryegrass, Italian (Italian ryegrass, Lolium multiflorum); experiment: Test A preemergence; details: Lolium multiflorum, pre-emergence, 240 h, 0 to 100 scale where 0 is no effect and 100 is complete control, read-out: Ryegrass, Italian plant response rating
Method in brief: as §1

[7] = tested on: Galium (catchweed bedstraw, Galium aparine); experiment: Test A postemergence; details: Galium, post-emergence, 240 h
Method in brief: as §1

[8] = tested on: Kochia (Kochia scoparia); experiment: Test A postemergence; details: Bassia scoparia, post-emergence, 240 h
Method in brief: as §1

[9] = tested on: barnyardgrass (Echinochloa crus-galli); experiment: Test A postemergence; details: Echinochloa crus-galli, post-emergence, 240 h
Method in brief: as §1

[10] = tested on: blackgrass (Alopecurus myosuroides); experiment: Test A postemergence; details: Alopecurus myosuroides, post-emergence, 240 h
Method in brief: as §1

[11] = tested on: corn (Zea mays); experiment: Test A postemergence; details: Zea mays, post-emergence, 240 h
Method in brief: as §1

[12] = tested on: giant foxtail (Setaria faberii); experiment: Test A postemergence; details: Setaria faberi, post-emergence, 240 h
Method in brief: as §1

[13] = tested on: pigweed (Amaranthus retroflexus); experiment: Test A postemergence; details: Amaranthus retroflexus, post-emergence, 240 h
Method in brief: as §1

[14] = tested on: ragweed (common ragweed, Ambrosia elatior); experiment: Test A postemergence; details: Ambrosia artemisiifolia, post-emergence, 240 h
Method in brief: as §1

[15] = tested on: ryegrass, Italian (Italian ryegrass, Lolium multiflorum); experiment: Test A postemergence; details: Lolium multiflorum, post-emergence, 240 h
Method in brief: as §1

[16] = tested on: wheat (Triticum aestivum); experiment: Test A postemergence; details: Triticum aestivum, post-emergence, 240 h
Method in brief: as §1

[17] = tested on: barnyardgrass (Echinochloa crus-galli); experiment: Test B flooded paddy test; details: Echinochloa crus-galli, 250 g ai/ha, Flood; 0 to 100 scale where 0 is no effect and 100 is complete control; read-out: Barnyardgrass plant response rating
Method in brief: (§2)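 Greenhouse paddy pots with 2-leaf stage plants received compound by direct addition to floodwater 3 cm deep, kept at that level. Scored visually at 13–15 d versus controls (0 no effect; 100 complete control).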

[18] = tested on: ducksalad (Heteranthera limosa); experiment: Test B flooded paddy test; details: Heteranthera limosa, 250 g ai/ha, Flood; 0 to 100 scale where 0 is no effect and 100 is complete control; read-out: Ducksalad plant response rating
Method in brief: as §2

[19] = tested on: rice (Oryra sativa); experiment: Test B flooded paddy test; details: Oryza sativa, 250 g ai/ha, Flood; 0 to 100 scale where 0 is no effect and 100 is complete control; read-out: Rice plant response rating
Method in brief: as §2

[20] = tested on: sedge, umbrella (small-flower umbrella sedge, Cyperus difformis); experiment: Test B flooded paddy test; details: Cyperus difformis, 250 g ai/ha, Flood; 0 to 100 scale where 0 is no effect and 100 is complete control; read-out: Sedge, Umbrella plant response rating
Method in brief: as §2

[21] = 125 g ai/ha, preemergence, approx. 10 d

Compound `CN1C[C@H](c2csc3c2CCCC3)[C@@H](C(=O)Nc2ccccc2S(C)(=O)=O)C1=O` [Compound 1080] has a pest or weed control at 31 g/ha ([1]; 31 g ai/ha, Preemergence) of 0%, a pest or weed control at 125 g/ha [1, 21] of 10% and a pest or weed control at 31 g/ha ([2]; 31 g ai/ha, Preemergence) of 0%. For the same compound, the pest or weed control at 125 g/ha [2, 21] was 0%, the pest or weed control at 31 g/ha ([3]; 31 g ai/ha, Preemergence) was 0% and the pest or weed control at 125 g/ha [3, 21] was 0%. For the same compound, the pest or weed control at 31 g/ha ([4]; 31 g ai/ha, Preemergence) was 0%, the pest or weed control at 125 g/ha [4, 21] was 0% and the pest or weed control at 31 g/ha ([5]; 31 g ai/ha, Preemergence) was 0%. The pest or weed control at 125 g/ha [5, 21] was 0%, the pest or weed control at 31 g/ha ([6]; 31 g ai/ha, Preemergence) was 0% and the pest or weed control at 125 g/ha [6, 21] was 0%. It also gave a pest or weed control at 125 g/ha ([7]; 125 g ai/ha, postemergence, visual injury on 0 to 100 scale (0 no effect, 100 complete control), approx. 10 d, read-out: Galium plant response rating) of 0%, a pest or weed control at 31 g/ha ([7]; Postemergence, 31 g ai/ha, visual injury after approx. 10 d, 0 to 100 scale, 0 no effect, 100 complete control, read-out: Plant response rating, Galium) of 0% and a pest or weed control at 125 g/ha ([8]; 125 g ai/ha, postemergence, visual injury on 0 to 100 scale (0 no effect, 100 complete control), approx. 10 d, read-out: Kochia plant response rating) of 0%. It also gave a pest or weed control at 31 g/ha ([8]; Postemergence, 31 g ai/ha, visual injury after approx. 10 d, 0 to 100 scale, 0 no effect, 100 complete control, read-out: Plant response rating, Kochia) of 0%, a pest or weed control at 125 g/ha ([9]; 125 g ai/ha, postemergence, visual injury on 0 to 100 scale (0 no effect, 100 complete control), approx. 10 d, read-out: Barnyardgrass plant response rating) of 50% and a pest or weed control at 31 g/ha ([9]; Postemergence, 31 g ai/ha, visual injury after approx. 10 d, 0 to 100 scale, 0 no effect, 100 complete control, read-out: Plant response rating, Barnyardgrass) of 0%. The pest or weed control at 125 g/ha ([10]; 125 g ai/ha, postemergence, visual injury on 0 to 100 scale (0 no effect, 100 complete control), approx. 10 d, read-out: Blackgrass plant response rating) was 0%, the pest or weed control at 31 g/ha ([10]; Postemergence, 31 g ai/ha, visual injury after approx. 10 d, 0 to 100 scale, 0 no effect, 100 complete control, read-out: Plant response rating, Blackgrass) was 0% and the plant injury at 125 g/ha ([11]; 125 g ai/ha, postemergence, visual injury on 0 to 100 scale (0 no effect, 100 complete control), approx. 10 d, read-out: Corn plant response rating) was 0%. The Corn plant response rating (crop injury, 0 = no effect, 100 = complete kill) at 31 g/ha ([11]; Postemergence, 31 g ai/ha, visual injury after approx. 10 d, 0 to 100 scale, 0 no effect, 100 complete control) was 0%, the pest or weed control at 125 g/ha ([12]; 125 g ai/ha, postemergence, visual injury on 0 to 100 scale (0 no effect, 100 complete control), approx. 10 d, read-out: Foxtail, Giant plant response rating) was 0% and the pest or weed control at 31 g/ha ([12]; Postemergence, 31 g ai/ha, visual injury after approx. 10 d, 0 to 100 scale, 0 no effect, 100 complete control, read-out: Plant response rating, Foxtail, Giant) was 0%. It also gave a pest or weed control at 125 g/ha ([13]; 125 g ai/ha, postemergence, visual injury on 0 to 100 scale (0 no effect, 100 complete control), approx. 10 d, read-out: Pigweed plant response rating) of 0%, a pest or weed control at 31 g/ha ([13]; Postemergence, 31 g ai/ha, visual injury after approx. 10 d, 0 to 100 scale, 0 no effect, 100 complete control, read-out: Plant response rating, Pigweed) of 0% and a pest or weed control at 125 g/ha ([14]; 125 g ai/ha, postemergence, visual injury on 0 to 100 scale (0 no effect, 100 complete control), approx. 10 d, read-out: Ragweed plant response rating) of 0%. It also gave a pest or weed control at 31 g/ha ([14]; Postemergence, 31 g ai/ha, visual injury after approx. 10 d, 0 to 100 scale, 0 no effect, 100 complete control, read-out: Plant response rating, Ragweed) of 0%, a pest or weed control at 125 g/ha ([15]; 125 g ai/ha, postemergence, visual injury on 0 to 100 scale (0 no effect, 100 complete control), approx. 10 d, read-out: Ryegrass, Italian plant response rating) of 0% and a pest or weed control at 31 g/ha ([15]; Postemergence, 31 g ai/ha, visual injury after approx. 10 d, 0 to 100 scale, 0 no effect, 100 complete control, read-out: Plant response rating, Ryegrass, Italian) of 0%. The plant injury at 125 g/ha ([16]; 125 g ai/ha, postemergence, visual injury on 0 to 100 scale (0 no effect, 100 complete control), approx. 10 d, read-out: Wheat plant response rating) was 0%, the plant injury at 31 g/ha ([16]; Postemergence, 31 g ai/ha, visual injury after approx. 10 d, 0 to 100 scale, 0 no effect, 100 complete control, read-out: Plant response rating, Wheat) was 0% and the pest or weed control at 250 g/ha [17] was 50%. For the same compound, the pest or weed control at 250 g/ha [18] was 40%, the pest or weed control at 250 g/ha [19] was 15% and the pest or weed control at 250 g/ha [20] was 0%.
